From PubChem BioAssay AID2060508 (Molecular Pharmacology Branch, DTP, NCI, 2025)
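Also: spheroids exposed to compounds for seven days.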

What follows are compounds tested on 454973-116-R2-J3-PDC spheroids, viability, % test/control (assay: Anticancer human tumor 454973-116-R2-J3-PDC patient-derived pancreatic carcinoma cell line growth inhibition [GQUAD]). Conditions: second compound 1 µM; first compound 0.316 µM; hits give low values; spheroids with HUVEC and MSC.
From the text: DNA G-quadruplex Stabilizer Agents in Combinations in Complex Spheroids
A high-throughput screen of multi-cell type tumor spheroids was designed to identify active combinations of DNA G-quadruplex stabilizer agents and targeted small molecules. Complex spheroids include a stromal component modeled by human endothelial cells (HUVEC) and fibroblasts modeled by human mesenchymal stem cells (MSCs). The concentration ranges selected for each drug and investigational agent were based upon clinically achievable concentrations if the clinical Cmax of the agent was known.
Compounds. The drugs and investigational agents: pidnarulex (CX-5461; NSC782164), APTO-253 (NSC789042), BRACO-19 (NSC847499), peposertib (NSC802822), ceralasertib (NSC780249), elimusertib (NSC800525), camonsertib (NSC841442), AZD-1390 (NSC803789), olaparib (NSC753686), talazoparib (NSC767125), ART-558 (NSC835418), sotorasib (NSC818433), MRTX-1133 (NSC836407), SN-38 (NSC673596), topotecan (NSC609699), etoposide (NSC141540), doxorubicin (NSC123127), gemcitabine (NSC613327), 5-fluorouracil (NSC19893), paclitaxel (NSC125973), vemurafenib (NSC761431), panobinostat (NSC761190), R-306465 (JNJ-16241199; NSC773264), adavosertib (NSC754352), TP-3654 (NSC805149), carboplatin (NSC241240), KSQ-4279 (NSC840948), and staurosporine (NSC755774) were obtained from the National Cancer Institute (NCI) Developmental Therapeutics Program Chemical Repository (34). The FDA-approved anticancer drug set is available from the NCI Developmental Therapeutics Program. […] The stock solutions were prepared in dimethyl sulfoxide (DMSO, Sigma-Aldrich, St. Louis, MO, cat. D2650) at 800-fold the tested concentration and stored at -70 degrees C prior to their use. All drugs and investigational agents were tested over a range starting from a high concentration at or near the clinical Cmax and decreasing in half-log increments. If the clinical Cmax for an agent had not been determined, the highest concentration tested was 10 microM.
2.3 Cell Culture. All cells were maintained in an incubator at 37 degrees C and 5% CO2 with 95% humidity. The PDC lines were cultured according to standard operating procedures established by the NCI PDMR. All PDCs were thawed and cultured in Matrigel-coated flasks prepared with a working solution of 1X Ham's F-12 nutrient mix, without supplementation (Invitrogen, cat. 11765054), 100 U/mL penicillin-streptomycin (Invitrogen, cat. 15140122), and 2.5% Matrigel (Corning Inc., cat. 354248) for the first three passages. The 857933-349-R-J2-PDC line was cultured in 6C/Colon 1B media, which includes advanced DMEM/F-12 (Thermo Fisher Scientific, cat. 12634028), 10 mM HEPES (Thermo Fisher Scientific, cat. 15630080), 1X GlutaMAX supplement (Thermo Fisher Scientific, cat. 35050061), 0.1 mg/mL primocin (InvivoGen, cat. ant-pm-2), 10% defined fetal bovine serum, heat inactivated (HyClone Laboratories Inc., cat. SH30070.03HI), 50% L-WRN conditioned media (ATCC, cat. CRL-3276), 1.25 mM N-Acetyl-L-cysteine (Sigma-Aldrich, cat. A9165), 10 mM nicotinamide (Sigma-Aldrich, cat. N0636), 1X B-27 supplement (Thermo Fisher Scientific, cat. 17504044), 1X N-2 supplement (Thermo Fisher Scientific, cat. 17502048), 10 microM Y-27632 dihydrochloride (Tocris Bioscience, cat. 1254), and 50 ng/mL human EGF recombinant protein (Thermo Fisher Scientific, cat. PHG0311). The 485176-168-R4-J1-PDC line was cultured in Panc media, which includes all 6C/Colon 1B media components plus 100 ng/mL human FGF-10 (Thermo Fisher Scientific, cat. 100-26), 500 nM SB-431542 (Selleckchem, cat. S1067), and gastrin (Tocris, cat. 3006).
[…]
`CC(C)n1c(=O)n(C)c2cnc3cc(F)c(-c4ccc(OCCCN5CCCCC5)nc4)cc3c21` + CN(C)c1ccc(Nc2c3ccc(NC(=O)CCN4CCCC4)cc3nc3cc(NC(=O)CCN4CCCC4)ccc23)cc1 gave a viability, T/C of 91.7%.
Compound `Nc1ccn(C2OC(CO)C(O)C2(F)F)c(=O)n1` (stereo unspecified) + CN(C)c1ccc(Nc2c3ccc(NC(=O)CCN4CCCC4)cc3nc3cc(NC(=O)CCN4CCCC4)ccc23)cc1 has a viability, T/C of 16.4%.
With `O=c1[nH]cc(F)c(=O)[nH]1` + CN(C)c1ccc(Nc2c3ccc(NC(=O)CCN4CCCC4)cc3nc3cc(NC(=O)CCN4CCCC4)ccc23)cc1 the viability, T/C was 89.2%.

Same assay, conditions: second compound 1 µM; first compound 1 µM; hits give low values; spheroids with HUVEC and MSC
Work on `C#Cc1c(F)ccc2cc(O)cc(-c3ncc4c(N5CC6CCC(C5)N6)nc(OCC56CCCN5CC(F)C6)nc4c3F)c12` (stereo unspecified) + CN(C)c1ccc(Nc2c3ccc(NC(=O)CCN4CCCC4)cc3nc3cc(NC(=O)CCN4CCCC4)ccc23)cc1 yielded a viability, T/C of 16.9%.
`CC(C)n1c(=O)n(C)c2cnc3cc(F)c(-c4ccc(OCCCN5CCCCC5)nc4)cc3c21` + CN(C)c1ccc(Nc2c3ccc(NC(=O)CCN4CCCC4)cc3nc3cc(NC(=O)CCN4CCCC4)ccc23)cc1 was tested, and the viability, T/C was 66.3%.
`Nc1ccn(C2OC(CO)C(O)C2(F)F)c(=O)n1` (stereo unspecified) + CN(C)c1ccc(Nc2c3ccc(NC(=O)CCN4CCCC4)cc3nc3cc(NC(=O)CCN4CCCC4)ccc23)cc1 gave a viability, T/C of 14%.
With `O=c1[nH]cc(F)c(=O)[nH]1` + CN(C)c1ccc(Nc2c3ccc(NC(=O)CCN4CCCC4)cc3nc3cc(NC(=O)CCN4CCCC4)ccc23)cc1 the viability, T/C was 56.9%.

Same assay, conditions: second compound 1 µM; first compound 3.16 µM; hits give low values; spheroids with HUVEC and MSC
`C#Cc1c(F)ccc2cc(O)cc(-c3ncc4c(N5CC6CCC(C5)N6)nc(OCC56CCCN5CC(F)C6)nc4c3F)c12` (stereo unspecified) + CN(C)c1ccc(Nc2c3ccc(NC(=O)CCN4CCCC4)cc3nc3cc(NC(=O)CCN4CCCC4)ccc23)cc1 was tested, and the viability, T/C was 18.6%.
Work on `CC(C)n1c(=O)n(C)c2cnc3cc(F)c(-c4ccc(OCCCN5CCCCC5)nc4)cc3c21` + CN(C)c1ccc(Nc2c3ccc(NC(=O)CCN4CCCC4)cc3nc3cc(NC(=O)CCN4CCCC4)ccc23)cc1 yielded a viability, T/C of 81.8%.
Compound `Nc1ccn(C2OC(CO)C(O)C2(F)F)c(=O)n1` (stereo unspecified) + CN(C)c1ccc(Nc2c3ccc(NC(=O)CCN4CCCC4)cc3nc3cc(NC(=O)CCN4CCCC4)ccc23)cc1 has a viability, T/C of 14.2%.
Compound `O=c1[nH]cc(F)c(=O)[nH]1` + CN(C)c1ccc(Nc2c3ccc(NC(=O)CCN4CCCC4)cc3nc3cc(NC(=O)CCN4CCCC4)ccc23)cc1 has a viability, T/C of 35.7%.

Same assay, conditions: second compound 1 µM; first compound 10 µM; hits give low values; spheroids with HUVEC and MSC
With `C#Cc1c(F)ccc2cc(O)cc(-c3ncc4c(N5CC6CCC(C5)N6)nc(OCC56CCCN5CC(F)C6)nc4c3F)c12` (stereo unspecified) + CN(C)c1ccc(Nc2c3ccc(NC(=O)CCN4CCCC4)cc3nc3cc(NC(=O)CCN4CCCC4)ccc23)cc1 the viability, T/C was 18%.
`CC(C)n1c(=O)n(C)c2cnc3cc(F)c(-c4ccc(OCCCN5CCCCC5)nc4)cc3c21` + CN(C)c1ccc(Nc2c3ccc(NC(=O)CCN4CCCC4)cc3nc3cc(NC(=O)CCN4CCCC4)ccc23)cc1 showed a viability, T/C of 65.3%.
`Nc1ccn(C2OC(CO)C(O)C2(F)F)c(=O)n1` (stereo unspecified) + CN(C)c1ccc(Nc2c3ccc(NC(=O)CCN4CCCC4)cc3nc3cc(NC(=O)CCN4CCCC4)ccc23)cc1 was tested, and the viability, T/C was 15.9%.
`O=c1[nH]cc(F)c(=O)[nH]1` + CN(C)c1ccc(Nc2c3ccc(NC(=O)CCN4CCCC4)cc3nc3cc(NC(=O)CCN4CCCC4)ccc23)cc1 showed a viability, T/C of 35.1%.

Same assay, conditions: second compound 3.16 µM; first compound 0.0316 µM; hits give low values; spheroids with HUVEC and MSC
With `C#Cc1c(F)ccc2cc(O)cc(-c3ncc4c(N5CC6CCC(C5)N6)nc(OCC56CCCN5CC(F)C6)nc4c3F)c12` (stereo unspecified) + CN(C)c1ccc(Nc2c3ccc(NC(=O)CCN4CCCC4)cc3nc3cc(NC(=O)CCN4CCCC4)ccc23)cc1 the viability, T/C was 53.8%.
`CC(C)n1c(=O)n(C)c2cnc3cc(F)c(-c4ccc(OCCCN5CCCCC5)nc4)cc3c21` + CN(C)c1ccc(Nc2c3ccc(NC(=O)CCN4CCCC4)cc3nc3cc(NC(=O)CCN4CCCC4)ccc23)cc1 showed a viability, T/C of 85.7%.
Compound `Nc1ccn(C2OC(CO)C(O)C2(F)F)c(=O)n1` (stereo unspecified) + CN(C)c1ccc(Nc2c3ccc(NC(=O)CCN4CCCC4)cc3nc3cc(NC(=O)CCN4CCCC4)ccc23)cc1 has a viability, T/C of 18%.
`O=c1[nH]cc(F)c(=O)[nH]1` + CN(C)c1ccc(Nc2c3ccc(NC(=O)CCN4CCCC4)cc3nc3cc(NC(=O)CCN4CCCC4)ccc23)cc1 showed a viability, T/C of 89.5%.

Same assay, conditions: second compound 3.16 µM; first compound 0.1 µM; hits give low values; spheroids with HUVEC and MSC
`C#Cc1c(F)ccc2cc(O)cc(-c3ncc4c(N5CC6CCC(C5)N6)nc(OCC56CCCN5CC(F)C6)nc4c3F)c12` (stereo unspecified) + CN(C)c1ccc(Nc2c3ccc(NC(=O)CCN4CCCC4)cc3nc3cc(NC(=O)CCN4CCCC4)ccc23)cc1 showed a viability, T/C of 36%.
In the case of `CC(C)n1c(=O)n(C)c2cnc3cc(F)c(-c4ccc(OCCCN5CCCCC5)nc4)cc3c21` + CN(C)c1ccc(Nc2c3ccc(NC(=O)CCN4CCCC4)cc3nc3cc(NC(=O)CCN4CCCC4)ccc23)cc1, the viability, T/C is reported as 91.7%.
